System: primary human airway epithelial cells
Experiment: IL-13 stimulation of airway epithelial cells in vitro, real time RT-PCR
Assay type: cell-based
Settings: IL-13 10 ng/mL, up to 4 days
Protocol: To confirm that airway epithelial cells are a source of serpinB2 and periostin and that these genes may be induced by cytokines relevant to asthma, we stimulated primary human airway epithelial cells in vitro with IL-13 (0.1 to 10 ng) for up to 4 days (methods in supplementary appendix).
Human primary bronchial airway epithelial cells were purchased (Clonetics—Cambrex Bio Science, Walkersville Md.) and grown as described by Gray et al.^7 Cells were purchased at passage 1 and expanded in T25 flasks until they reached 80% confluency at which time they were passaged onto 6.5 mm Transwell permeable supports at a density of 132,000 cells/filter. The cells were grown submerged in Gray's medium until approximately day 7 to 9 at which point an air-liquid interface was established. Cells became fully differentiated (ciliated and mucous producing) as determined by transepithelial voltage and resistance after 2-3 weeks on the filters. Cells were exposed to the recombinant human IL-13 (R&D Systems, Minneapolis Minn.) for up to four days at concentrations ranging from 0.1 ng/ml to 10 ng/ml. Filters were cut from the support and submerged in RLT lysis buffer (Qiagen Inc, Valencia Calif.) and stored at −80° C. before analysis of gene expression by real time RT-PCR.

IL-13: recombinant human IL-13 (R&D Systems) used to stimulate airway epithelial cells
Epithelial gene expression of periostin: large increases
Epithelial gene expression of serpinB2: large increases
